Reference: the OPERA property sets (Mansouri et al. 2018)

Structure (SMILES) | logP
Nc1nc2cc(Cl)ccc2[nH]1 | 1.88
CCCCc1c(C)nc(NCC)nc1OS(=O)(=O)N(C)C | 2.7
NN(c1ccccc1)c1ccccc1 | 2.8
CCn1cnc2c(NC(C)=O)ncnc21 | -0.41
CON(C)/N=N/c1ccc(C(N)=O)cc1 | 1.19
CC(C)C(Cl)C(=O)NC(N)=O (configuration not stated) | 1
ClC1=C(Cl)C(Cl)(Cl)C(Cl)=C1Cl | 5.04
CCOC(=O)C(=Cc1ccc(Cl)cc1)C(C)=O | 3.04
CCC1(CC(C)C(C)C)C(=O)NC(=O)NC1=O (configuration not stated) | 2.02
ClCc1ccc(Cl)cc1Cl | 3.82
CCCCNc1ccccc1OC | 2.85
CC(C)(Oc1ccccc1)C(=O)N[C@@H]1C(=O)N2[C@@H]1SC(C)(C)[C@@H]2C(=O)O | 2.76
Nc1ccc(C(=O)Oc2cccc(Br)c2)c(O)c1 | 3.84
CCC(=O)c1ccc(O)cc1 | 2.03
NCc1ccco1 | 0.37
COc1c(C)ncc(CO)c1CO | -0.1
C=CCC1(CC)C(=O)NC(=O)N(C)C1=O (configuration not stated) | 1.35
ClC1CC(Cl)C(Cl)C(Cl)C1Cl (configuration not stated) | 3.53
O=C(O)COc1ccc(Cl)c(Br)c1 | 2.75
CNS(=O)(=O)c1ccc(S(I)=C(N(C)C)N(C)C)cc1 (configuration not stated) | -1.4
CCC1(CCC(C)C)C(=O)NC(=O)NC1=O | 2.07
Nc1ccc(C2CCCCC2)cc1 | 3.65
CCN(CC)CCSC(=NO)c1nc(-c2cccc3ccccc23)no1 | 3.87

Structure (SMILES) | logP
Oc1ccc(Cc2ccc(O)cc2)cc1 | 2.91
CCC1C(=O)NC(=O)NC1=O | -0.35
Cn1nnc2ccccc2c1=O | 0.84
Brc1cccs1 | 2.75
CCOP(=S)(OCC)SCCS(=O)(=O)CC | 1.87
CI | 1.51
CNc1nc2c3cccnc3ccc2n1C | 1.82
Cc1cccc(NC(N)=O)c1 | 1.29
NC(=O)Cc1ccccn1 | -0.65
CC(C)CC(=O)NC(N)=O | 0.45
[O-][n+]1cccc(O)c1 | -0.61
CCCCCCOC(=O)c1cc(O)c(O)c(O)c1 | 3.17
O=C1C=CC(=O)N1 | -0.29
c1ccc2[nH]ccc2c1 | 2.14
Cc1ccc(COC(=O)N(C)C)cc1 | 2.63
Cc1cccc(Cl)c1NC1=NCCN1 | 1.71
c1ccc(-c2cccs2)cc1 | 3.74
COP(=O)(OC)O/C(C)=C/C(=O)N(C)C | 0
CCNC(=O)Nc1ccccc1 | 1.64
CC(C)C(C)C | 3.42
FC(F)(F)c1ccccc1N=C1NCCN1 | 1.42
COc1cnc(NS(=O)(=O)c2ccc(N)cc2)nc1 | 0.41
COc1cccc2c1C(=N)c1c(O)c3c(c(O)c1C2=O)CC(O)(C(=O)CO)CC3OC1CC(N2CCOCC2C#N)C(O)C(C)O1 (configuration not stated) | 1.97

Structure (SMILES) | logP
Cc1cc(C)nc(C)c1 | 1.88
C=CCC1(C(C)CCC)C(=O)NC(=O)NC1=O (configuration not stated) | 1.97
CN(C)c1cccc2cccnc12 | 2.73
C=COCC | 1.04
CC(C)NCc1cccnc1 | 0.82
CCCCCc1ccncc1 | 3.75
COc1cc(OC)cc(C(=O)O)c1 | 2.19
CCCC1CCCc2ncc(C(=O)OC)c(=O)n21 (configuration not stated) | 1.14
NC(=O)NNC(=O)c1ccccc1 | -0.5
Cc1cc(Cl)c(N=C2NCCN2)c(Cl)c1 | 1.92
O=c1[nH]cnc2ccccc12 | 0.77
Cn1c([N+](=O)[O-])cnc1-c1nc2ccccc2n1CCCN1CCOCC1 | 1.8
Nc1ccccc1C(=O)O | 1.21
CCN(CC)CCOC(=O)C=Cc1ccc(OC)cc1 | 3.55
COC1OC(=O)c2ccccc21 (configuration not stated) | 1
CC(C)c1ccccc1OC(=O)c1ccc(N)cc1O | 4.28
OCCc1ccccn1 | 0.12
C#C[C@]1(O)CC[C@H]2[C@@H]3CCC4=CC(=O)CC[C@@H]4[C@H]3CC[C@@]21C | 2.97
Cc1cccc(C#N)n1 | 0.84
CC=C(C)C1(C)CC(=O)C(C(CCC)=NOCC)C(=O)O1 (configuration not stated) | 3.4
OCc1ccoc1 | 0.3
